In experiment [1] the test system is supramaximal electroshock (extensor tonus). In words: supramaximal electroshock (SES) assay, anticonvulsant activity. Particulars: for ED50 SES: i.p.; for ED50 SES / ED50: 206 volts rms for 300 msec; for SES, % protection (normalized percent inhibition) at indicated dose: @ 60 mg/kg i.p.; for ED50: Mus musculus, ip. It counts as in vivo, male mouse. How it is done:
The compounds of the invention are also useful as anticonvulsants due to their anticonvulsant activity in mammals. Anticonvulsant activity is measured in the male mouse using the supramaximal electroshock (SES) assay described in Arch. Int. Pharmacodyn. 92: 97-107, 1952. In this procedure groups of animals are used. Drugs are prepared using distilled water and, if insoluble, a surfactant is added. Control animals receive vehicle. Drugs are routinely administered intraperitoneally (i.p.). The dosage volume is 10 ml/kg. A primary screen is given a 30 minute pretreat. The animal's eyes are placed across the output terminals of an A.C. shocker that delivers 206 volts rms for 300 msec. Electrode paste coats the animals eyes at the point of contact with the terminals. […] Protection is expressed as normalized percent inhibition relative to vehicle control.
A time response is carried out using six animals/group. Animals are tested at 30, 60 and 120 minutes postdrug. Additional time periods are tested if indicated by previous tests. When the peak activity time has been determined, a dose response is initiated using 10 animals/group at that time period. The ED50 and 95% confidence interval are calculated by computer probit analysis.

For experiment [2], the system named is metrazol lethality (pentylenetetrazol). In words: metrazol lethality (MTZ), anticonvulsant activity. It counts as in vivo, male mice. To be noted: for ED50: Mus musculus, ip; for MTZ, % protected at indicated dose: @ 60 mg/kg i.p. Here is the method:
Anticonvulsant activity is also measured using the metrazol lethality (MTZ). In this procedure groups of male mice are utilized. Test drugs are prepared using distilled water and, if insoluble, a suitable surfactant is added. The route of administration is i.p., but all administration are in volumes proportional to 10 cc/kg.
For a time response, 25 animals (5/group) are administered drug i.p. at 15, 30, 60 and 90 minutes prior to Metrazol treatment. Control animals (2/group) receive vehicle. Metrazol (pentylenetetrazol) is prepared at a concentration of 225 mg/10 ml in distilled water. Metrazol is administered s.c. at 225 mg/kg in distilled water. Those animals alive 15 minutes after Metrazol injection are considered protected. The time period with the greatest percent protected is said to be that of peak drug activity.
A dose range is run in the same manner as a time response except that 50 animals (10/group) are tested at the peak time of drug activity. One group receives vehicle. An ED50 is calculated by means of linear regression.

Experiment [3] has as its system phenyl-p-quinone writhing. In words: phenyl-p-quinone writhing assay (analgesia). It is filed as in vivo, mice. To be noted: for ED50: Mus musculus, sc, read-out: ED50, inhibition of writhing; for inhibition of writhing at indicated dose: @ 20 mg/kg, s.c.
The test system of a further experiment is apomorphine climbing. In words: apomorphine climbing mice assay (antipsychotic activity). Particulars: for ED50: Mus musculus, ip, read-out: ED50, antipsychotic activity (climbing); for % decrease in climbing score at indicated dose: @ 10 mg/kg, i.p. It is filed as in vivo, mice (CK-1 male). How it is done: Antipsychotic activity is determined in the climbing mice assay by methods similar to those described by P. Protais, et al., Psychopharmacol., 50, 1 (1976) and B. Costall, Eur. J. Pharmacol., 50, 39 (1978).
The subject CK-1 male mice (23-27 grams) are group-housed under standard laboratory conditions. The mice are individually placed in wire mesh stick cages (4"×4" by 10") and are allowed one hour for adaptation and exploration of the new environment. Then apomorphine is injected subcutaneously at 1.5 mg/kg, a dose causing climbing in all subjects for 30 minutes. Compounds to be tested for antipsychotic activity are injected intraperitoneally (i.p.) 30 minutes prior to the apomorphine challenge at a screening dose of 10 mg/kg.
For evaluation of climbing, 3 readings are taken at 10, 20, and 30 minutes after apomorphine administration according to the following scale:
4 paws on bottom (no climbing)
2 paws on the wall (rearing)
4 paws on the wall (full climb)
Mice consistently climbing before the injection of apomorphine will be discarded.
With full-developed apomorphine climbing, the animals are hanging onto the cage walls, rather motionless, over longer periods of time. By contrast, climbs due to mere motor stimulation usually only last a few seconds.
The climbing scores are individually totaled (maximal score: 6 per mouse over 3 readings) and the total score of the control group (vehicle intraperitoneally-apomorphine subcutaneously) is set to 100%. ED50 values with 95% confidence limits, calculated by a Linear Regression Analysis of some of the instant 3-(piperidinyl)-1H-indazoles and 3-(pyrrolidinyl)-1H-indazoles as well as standard antipsychotics, are presented in Table 1.

The mark [4] stands for this setting: 30 minutes prior to apomorphine 1.5 mg/kg s.c.

“And” between values parts separate entries of the source, which are not always exact repeats. Equal values may be shown once. Read-outs that look alike come from different tables or passages of the source.

The source of these data is patent publication US4853470A, “3-(piperidinyl)- and 3-(pyrrolidinyl)-1H-indazoles” (Hoechst-Roussel Pharmaceuticals, Inc., priority 1988, dated 1989).

Take “1-(2-Phenylethyl)-3-(1-methyl-4-piperidinyl)-1H-indazole hydrobromide [Example 14]”: the “ED50 SES” value in experiment [1] was found to be 34.9 mg/kg.
“1-(4-Nitrophenyl)-3-(1-methyl-4-piperidinyl)-1H-indazole hydrochloride [Example 7]”: the “SES, % protection (normalized percent inhibition) at indicated dose” value in experiment [1] is reported as 0%.
Turning to “1-(6-Fluoro-1,2-benzisoxazole-3-propyl)-3-(1-methyl-4-piperidinyl)-1H-indazole maleate [Example 11]”, in experiment [2] (i.p., Metrazol 225 mg/kg s.c.), the “ED50 MTZ” value was determined as 79.6 mg/kg.
Turning to “1-Hydroxymethyl-3-(1-methyl-4-piperidinyl)-1H-indazole [Example 10]”, the “ED50 SES” value in experiment [1] amounted to 35.3 mg/kg.
On to `CC(=O)n1nc(C2CCN(C)CC2)c2ccccc21.Cl` [1-Acetyl-3-(1-methyl-4-piperidinyl)-1H-indazole hydrochloride], for which the median effective dose (ED50) (as a rule, the midpoint of the dose-response relation) in experiment [3] was 0.71 mg/kg; in the experiment with apomorphine climbing, 5.4 mg/kg.
As to `CN1CCC(c2nn(C(=O)c3ccccc3)c3ccccc23)CC1.Cl` [1-Benzoyl-3-(1-methyl-4-piperidinyl)-1H-indazole hydrochloride], the ED50 in experiment [3] (approximately 50% inhibition) came out at 0.85 mg/kg; in the experiment on apomorphine climbing (setting [4]) it was 6.5 mg/kg.
For `CN1CCC(c2nn(C(=O)c3ccccc3)c3cc(F)ccc23)CC1.O=C(O)/C=C/C(=O)O` [1-Benzoyl-6-fluoro-3-(1-methyl-4-piperidinyl)-1H-indazole fumarate], the results for the ED50 (in experiment [3] (approximately 50% inhibition); in the experiment with apomorphine climbing (setting [4])) were 0.17 mg/kg and 1.8 mg/kg, respectively.
As for `Br.CN1CCC(c2nn(CC3CC3)c3ccccc23)CC1` [1-Cyclopropylmethyl-3-(1-methyl-4-piperidinyl)-1H-indazole hydrobromide], the ED50 in experiment [3] (approximately 50% inhibition) was 1.1 mg/kg. The “% decrease in climbing score at indicated dose” value (“% decrease in climbing score” for short) with apomorphine climbing came to 36%.
On to `Br.CCn1nc(C2CCN(C)CC2)c2ccccc21` [1-Ethyl-3-(1-methyl-4-piperidinyl)-1H-indazole hydrobromide], for which, in experiment [3], the ED50 came out at 0.65 mg/kg. Further, in the experiment with apomorphine climbing, the “% decrease in climbing score” value is 41%.
Take `Br.CN1CCC(c2nn(Cc3ccccc3)c3ccccc23)CC1` [1-Phenylmethyl-3-(1-methyl-4-piperidinyl)-1H-indazole hydrobromide]: the “inhibition of writhing at indicated dose” value in experiment [3] (hydrobromide) was 75% and 96%.
With `CN(C)CCCn1nc(C2CCN(C)CC2)c2ccccc21.O=C(O)/C=C/C(=O)O.O=C(O)/C=C/C(=O)O` [1-[3-(Dimethylamino)propyl]-3-(1-methyl-4-piperidinyl)-1H-indazole difumarate], the “inhibition of writhing at indicated dose” value in experiment [3] is reported as 15%.
On to `CN1CCC(c2nn(-c3ccc(C(F)(F)F)cc3)c3ccccc23)CC1.Cl` [3-(1-Methyl-4-piperidinyl)-1-[4-(trifluoromethyl)phenyl]-1H-indazole hydrochloride], for which, in experiment [3] (approximately 50% inhibition), the ED50 is 9.8 mg/kg.
For `CN1CCC(c2nn(C(=O)OCC(Cl)(Cl)Cl)c3ccccc23)CC1.Cl` [3-(1-Methyl-4-piperidinyl)-1-trichloroethoxycarbonyl-1H-indazole hydrochloride], the “% decrease in climbing score” value in the experiment with apomorphine climbing is reported as 46%.
In the case of `CN1CCC(c2n[nH]c3ccccc23)CC1` [3-(1-methyl-4-piperidinyl)-1H--indazole, 3-(1-Methyl-4-piperidinyl)-1H-indazole], the ED50 in experiment [3] was 0.26 mg/kg; with apomorphine climbing, 4.5 mg/kg.
`Fc1ccc(C(CCCN2CCC(c3n[nH]c4ccccc34)CC2)c2ccc(F)cc2)cc1` [3-[1-[4,4-bis(4-Fluorophenyl)butyl]-4-piperidinyl]-1H-indazole]: in experiment [3], the “inhibition of writhing at indicated dose” value stood at 31%. In addition, in the experiment with apomorphine climbing (setting [4]), the 50% effective dose (ED50) worked out at 7.4 mg/kg.
With `CNC(=O)N1CCC(c2nn(-c3ccccc3F)c3ccccc23)CC1` [Compound 1], the results for the median effective dose (ED50) in experiment [1] and in experiment [2] (Metrazol 225 mg/kg s.c.) were 37 mg/kg and 49 mg/kg, respectively.
With `O=C(Nc1ccccc1)N1CCC(c2nn(-c3ccccc3)c3cc(F)ccc23)CC1` [Compound 2, N-Phenyl-4-(6-fluoro-1-phenyl-1H-indazol-3-yl)piperidine-1-carboxamide], the “SES, % protection (normalized percent inhibition) at indicated dose” value in experiment [1] came out at 0%. In addition, the “MTZ, % protected at indicated dose” value in experiment [2] is 20%.
`Br.NC(=O)N1CCC(c2nn(-c3ccc(C(F)(F)F)cc3)c3ccccc23)CC1` [Compound 3, 4-[1-[4-(Trifluoromethyl)phenyl]-1H-indazol-3-yl]-1-piperidine carboxamide hydrobromide]: the 50% effective dose (ED50) in experiment [1] is 10.9 mg/kg; in experiment [2] (Metrazol 225 mg/kg s.c.), 27.4 mg/kg.
For the molecule `CNC(=O)N1CCC(c2nn(-c3ccccc3)c3cc(F)ccc23)CC1` [Compound 4, N-Methyl-4-(6-fluoro-1-phenyl-1H-indazol-3-yl)piperidine-1-carboxamide], the median effective dose (ED50) in experiment [1] was 64.9 mg/kg. Further, the “MTZ, % protected at indicated dose” value in experiment [2] is recorded as 0%.
As to `Fc1ccc2c(C3CCN(C(=S)Nc4ccccc4)CC3)nn(-c3ccccc3)c2c1` [Compound 5, N-Phenyl-4-(6-fluoro-1-phenyl-1H-indazol-3-yl)piperidine-1-carbothioamide], the “SES, % protection (normalized percent inhibition) at indicated dose” value in experiment [1] came out at 0%. In addition, in experiment [2], the “MTZ, % protected at indicated dose” value turned out to be 17%.
The molecule `CNC(=O)N1CCC(c2nn(-c3ccc(C(F)(F)F)cc3)c3ccccc23)CC1` [Compound 6] returned an ED50 in experiment [1] of 44.9 mg/kg. Further, the “MTZ, % protected at indicated dose” value in experiment [2] is listed as 20%.
Take `CC(=O)N1CCC(c2nn(-c3ccccc3)c3cc(Br)ccc23)CC1` [Compound 8, 1-Acetyl-4-(6-bromo-1-phenyl-1H-indazol-3-yl)piperidine]: the “SES, % protection (normalized percent inhibition) at indicated dose” value in experiment [1] turned out to be 33%. Moreover, the “MTZ, % protected at indicated dose” value in experiment [2] came to 0%.
Regarding `CNC(=O)N1CCC(c2nn(-c3ccc(F)cc3)c3ccccc23)CC1` [Compound 9], the ED50 in experiment [1] came to 31.7 mg/kg; in experiment [2] (Metrazol 225 mg/kg s.c.), 45.5 mg/kg.
Consider `O=CN1CCC(c2nn(-c3ccc(C(F)(F)F)cc3)c3ccccc23)CC1` [Compound 12], for which the 50% effective dose (ED50) was 27.2 mg/kg in experiment [1] and 60.9 mg/kg in experiment [2] (Metrazol 225 mg/kg s.c.).
The molecule `O=CN1CCC(c2nn(-c3ccc(F)cc3)c3ccccc23)CC1` [Compound 13] gave a median effective dose (ED50) in experiment [1] of 24.7 mg/kg. For the same molecule, the “MTZ, % protected at indicated dose” value in experiment [2] is 40%.
Take `NC(=O)N1CCC(c2nn(-c3ccccc3)c3cc(Cl)ccc23)CC1` [Compound 15, 4-(6-Chloro-1-phenyl-1H-indazol-3-yl)piperidine-1-carboxamide]: the ED50 is 48.1 mg/kg in experiment [1] and 31.2 mg/kg in experiment [2] (Metrazol 225 mg/kg s.c.).
With `CN(C)C(=O)N1CCC(c2nn(-c3ccc(C(F)(F)F)cc3)c3ccccc23)CC1` [Compound 16], in experiment [1], the “SES, % protection (normalized percent inhibition) at indicated dose” value worked out at 20%. For the same molecule, in experiment [2], the “MTZ, % protected at indicated dose” value is recorded as 20%.
For `O=C(CCCN1CCC(O)(c2ccc(Cl)cc2)CC1)c1ccc(F)cc1` [haloperidol, reference compound], the ED50 in the experiment with apomorphine climbing was found to be 0.11 mg/kg.
With `CC(C)=CCN1CCC2(C)c3cc(O)ccc3CC1C2C` (stereo not shown) [pentazocine, reference compound], the 50% effective dose (ED50) in experiment [3] came out at 1.3 mg/kg.
Take `CCC(=O)O[C@](Cc1ccccc1)(c1ccccc1)[C@H](C)CN(C)C` [propoxyphene, reference compound]: in experiment [3], the ED50 amounted to 3.9 mg/kg.
